Source: article PMC11249646, “Small-Molecule Disruptors of the Interaction between Calcium- and Integrin-Binding Protein 1 and Integrin αIIbβ3 as Novel Antiplatelet Agents” (ACS Pharmacology & Translational Science, 2024)

Molecular target: T1, CIB1 and αIIb interaction (CIB1-GST : F-αIIb peptide) (Homo sapiens, UniProt Q99828)
T1 construct: made in house; host or cells: BL-21 plus RIL cells (E. coli)
T1 sequence (Q99828 1-191): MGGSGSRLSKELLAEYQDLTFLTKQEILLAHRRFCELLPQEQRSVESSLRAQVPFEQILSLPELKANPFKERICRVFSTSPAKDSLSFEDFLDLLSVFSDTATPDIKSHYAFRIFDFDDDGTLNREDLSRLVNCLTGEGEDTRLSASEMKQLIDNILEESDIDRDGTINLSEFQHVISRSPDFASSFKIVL
Assay: FP assay, 1536-well qHTS format (primary and confirmatory screen)
Assay type: binding
Settings: qHTS primary screen hits, Table S2; negative = inhibition

Compound | Efficacy (%)
Cc1ccc(C)c(SC2=NS(=O)(=O)c3cc(C(=O)Nc4ccc5ncccc5c4)ccc32)c1 [NCGC00238689-01] | -27
Cc1ccc(OCCn2c3c(c4ccccc42)CN(C(=O)C2CCCCC2)CC3)cc1.O=C(O)C(F)(F)F [NCGC00238717-01] | -46
O=C(O)C(F)(F)F.O=C(O)c1ccc(O)c2ncc(N3CCN(Cc4ccccc4)CC3)cc12 [NCGC00241045-04] | -24
CC(=O)Nc1sc2c(c1-c1nc3ccccc3s1)CCN(C1COC1)C2.O=C(O)C(F)(F)F [NCGC00241066-01] | -83
Cc1ccnc(NC(=S)N2CCc3ccccc3C2)c1.O=C(O)C(F)(F)F [NCGC00241083-01] | -23
Cc1ccnc(N(C)C(=S)N2CCN(c3cccc(C(F)(F)F)c3)CC2)c1.O=C(O)C(F)(F)F [NCGC00241084-01] | -24
Cc1ccc(-n2nc(C(C)(C)C)cc2NC(=O)Nc2ccc(OCCN3CCOCC3)c3ccccc23)cc1 [NCGC00241104-02] | -32
Cc1ccnc(NC(=S)N2CC[C@@H](Nc3cccc(C(F)(F)F)c3)C2)c1 [NCGC00241356-01] | -31
Cc1ccn2c(Nc3ccc4c(c3)OCO4)c(-c3ccccn3)nc2c1.O=C(O)C(F)(F)F [NCGC00241360-01] | -51
Cc1cc2c(cc1C1(c3ccc(C(=O)O)cc3)CC1)C(C)(C)CCC2(C)C [NCGC00241454-01] | -27
COc1ccc(CNC(=O)c2ccc3c(c2)NC(=O)c2ccccc2S3)cc1 [NCGC00241665-01] | -27
CC(=O)O.Cc1ccc(OCCn2c(CCNC(=O)c3ccc(N)cc3)nc3ccccc32)cc1 [NCGC00241723-01] | -31
Cc1ccnc(NC(=S)N2CCN(c3cccc(C(F)(F)F)c3)CC2)n1.O=C(O)C(F)(F)F [NCGC00242308-01] | -41
Cc1ccc(NS(=O)(=O)c2cc(Br)cc3c2NC(=O)CC3)cc1Cl.O=C(O)C(F)(F)F [NCGC00242331-01] | -33
N#C[C@@H]1C[C@@H]2C[C@@H]2N1C(=O)[C@@H](N)C12CC3CC(CC(O)(C3)C1)C2 [NCGC00242597-01] | -49
O=C(O)C(F)(F)F.O=C1CCCC2=C1C(c1n[nH]cc1Cl)NC(Nc1nc3ccccc3o1)=N2 (centres unmarked) [NCGC00242659-02] | -31
Cc1cc(C)nc(NC(=S)N2CCN(c3cc4ccccc4cn3)CC2)c1.O=C(O)C(F)(F)F [NCGC00244142-01] | -31
Cc1cc(C)nc(NC(=S)N2CCN(c3cccc4ccncc34)CC2)c1.O=C(O)C(F)(F)F [NCGC00244146-01] | -30
Cc1cc(C)nc(NC(=S)N2CCN(c3ccc4nonc4c3)CC2)c1.O=C(O)C(F)(F)F [NCGC00244156-01] | -25
CN(C)CCc1c[nH]c2ccc(O)cc12 [NCGC00247724-01] | -23
CCOC(=O)c1nnc(NS(=O)(=O)c2ccc(NC(=O)Cc3ccc(Cl)c(Cl)c3)cc2)s1.O=C(O)C(F)(F)F [NCGC00248354-02] | -28
Cc1c2c(=O)n(-c3ccccc3)[nH]c2cc(=O)n1Cc1ccco1.O=C(O)C(F)(F)F [NCGC00248469-01] | -43

Same assay, conditions: qHTS primary screen hits, Table S2; negative sign = inhibitory curve

Compound | Curve Class
Cc1ccc(C)c(SC2=NS(=O)(=O)c3cc(C(=O)Nc4ccc5ncccc5c4)ccc32)c1 [NCGC00238689-01] | -2.4
Cc1ccnc(N(C)C(=S)N2CCN(c3cccc(C(F)(F)F)c3)CC2)c1.O=C(O)C(F)(F)F [NCGC00241084-01] | -2.4
COc1ccc(CNC(=O)c2ccc3c(c2)NC(=O)c2ccccc2S3)cc1 [NCGC00241665-01] | -2.4
CC(=O)O.Cc1ccc(OCCn2c(CCNC(=O)c3ccc(N)cc3)nc3ccccc32)cc1 [NCGC00241723-01] | -1.4
Cc1ccc(NS(=O)(=O)c2cc(Br)cc3c2NC(=O)CC3)cc1Cl.O=C(O)C(F)(F)F [NCGC00242331-01] | -2.2
Cc1cc(C)nc(NC(=S)N2CCN(c3cccc4ccncc34)CC2)c1.O=C(O)C(F)(F)F [NCGC00244146-01] | -2.4
CN(C)CCc1c[nH]c2ccc(O)cc12 [NCGC00247724-01] | -2.4

Same assay, conditions: qHTS primary screen hits, Table S2; negative sign = inhibitory curve; several classes where COUNT > 1

Compound | Curve Class
Cc1ccc(OCCn2c3c(c4ccccc42)CN(C(=O)C2CCCCC2)CC3)cc1.O=C(O)C(F)(F)F [NCGC00238717-01] | -2.4
O=C(O)C(F)(F)F.O=C(O)c1ccc(O)c2ncc(N3CCN(Cc4ccccc4)CC3)cc12 [NCGC00241045-04] | -2.4
CC(=O)Nc1sc2c(c1-c1nc3ccccc3s1)CCN(C1COC1)C2.O=C(O)C(F)(F)F [NCGC00241066-01] | -1.2
Cc1ccnc(NC(=S)N2CCc3ccccc3C2)c1.O=C(O)C(F)(F)F [NCGC00241083-01] | -2.4
Cc1ccc(-n2nc(C(C)(C)C)cc2NC(=O)Nc2ccc(OCCN3CCOCC3)c3ccccc23)cc1 [NCGC00241104-02] | -2.4
Cc1ccnc(NC(=S)N2CC[C@@H](Nc3cccc(C(F)(F)F)c3)C2)c1 [NCGC00241356-01] | -2.4
Cc1ccn2c(Nc3ccc4c(c3)OCO4)c(-c3ccccn3)nc2c1.O=C(O)C(F)(F)F [NCGC00241360-01] | -2.4
Cc1cc2c(cc1C1(c3ccc(C(=O)O)cc3)CC1)C(C)(C)CCC2(C)C [NCGC00241454-01] | -2.4
Cc1ccnc(NC(=S)N2CCN(c3cccc(C(F)(F)F)c3)CC2)n1.O=C(O)C(F)(F)F [NCGC00242308-01] | -2.2
N#C[C@@H]1C[C@@H]2C[C@@H]2N1C(=O)[C@@H](N)C12CC3CC(CC(O)(C3)C1)C2 [NCGC00242597-01] | -2.2
O=C(O)C(F)(F)F.O=C1CCCC2=C1C(c1n[nH]cc1Cl)NC(Nc1nc3ccccc3o1)=N2 (centres unmarked) [NCGC00242659-02] | -2.4
Cc1cc(C)nc(NC(=S)N2CCN(c3cc4ccccc4cn3)CC2)c1.O=C(O)C(F)(F)F [NCGC00244142-01] | -2.4
Cc1cc(C)nc(NC(=S)N2CCN(c3ccc4nonc4c3)CC2)c1.O=C(O)C(F)(F)F [NCGC00244156-01] | -2.4
Cc1c2c(=O)n(-c3ccccc3)[nH]c2cc(=O)n1Cc1ccco1.O=C(O)C(F)(F)F [NCGC00248469-01] | -2.4

Same assay, conditions: qHTS primary screen hits, Table S2; read-out: IC50

Compound | IC50 [µM]
Cc1ccc(C)c(SC2=NS(=O)(=O)c3cc(C(=O)Nc4ccc5ncccc5c4)ccc32)c1 [NCGC00238689-01] | 44.7
Cc1ccc(OCCn2c3c(c4ccccc42)CN(C(=O)C2CCCCC2)CC3)cc1.O=C(O)C(F)(F)F [NCGC00238717-01] | 56.2
O=C(O)C(F)(F)F.O=C(O)c1ccc(O)c2ncc(N3CCN(Cc4ccccc4)CC3)cc12 [NCGC00241045-04] | 56.2
CC(=O)Nc1sc2c(c1-c1nc3ccccc3s1)CCN(C1COC1)C2.O=C(O)C(F)(F)F [NCGC00241066-01] | 14.1
Cc1ccnc(NC(=S)N2CCc3ccccc3C2)c1.O=C(O)C(F)(F)F [NCGC00241083-01] | 79.4
Cc1ccnc(N(C)C(=S)N2CCN(c3cccc(C(F)(F)F)c3)CC2)c1.O=C(O)C(F)(F)F [NCGC00241084-01] | 50.1
Cc1ccc(-n2nc(C(C)(C)C)cc2NC(=O)Nc2ccc(OCCN3CCOCC3)c3ccccc23)cc1 [NCGC00241104-02] | 44.7
Cc1ccnc(NC(=S)N2CC[C@@H](Nc3cccc(C(F)(F)F)c3)C2)c1 [NCGC00241356-01] | 79.4
Cc1ccn2c(Nc3ccc4c(c3)OCO4)c(-c3ccccn3)nc2c1.O=C(O)C(F)(F)F [NCGC00241360-01] | 56.2
Cc1cc2c(cc1C1(c3ccc(C(=O)O)cc3)CC1)C(C)(C)CCC2(C)C [NCGC00241454-01] | 79.4
COc1ccc(CNC(=O)c2ccc3c(c2)NC(=O)c2ccccc2S3)cc1 [NCGC00241665-01] | 56.2
CC(=O)O.Cc1ccc(OCCn2c(CCNC(=O)c3ccc(N)cc3)nc3ccccc32)cc1 [NCGC00241723-01] | 44.7
Cc1ccnc(NC(=S)N2CCN(c3cccc(C(F)(F)F)c3)CC2)n1.O=C(O)C(F)(F)F [NCGC00242308-01] | 79.4
Cc1ccc(NS(=O)(=O)c2cc(Br)cc3c2NC(=O)CC3)cc1Cl.O=C(O)C(F)(F)F [NCGC00242331-01] | 50.1
N#C[C@@H]1C[C@@H]2C[C@@H]2N1C(=O)[C@@H](N)C12CC3CC(CC(O)(C3)C1)C2 [NCGC00242597-01] | 44.7
O=C(O)C(F)(F)F.O=C1CCCC2=C1C(c1n[nH]cc1Cl)NC(Nc1nc3ccccc3o1)=N2 (centres unmarked) [NCGC00242659-02] | 31.6
Cc1cc(C)nc(NC(=S)N2CCN(c3cc4ccccc4cn3)CC2)c1.O=C(O)C(F)(F)F [NCGC00244142-01] | 79.4
Cc1cc(C)nc(NC(=S)N2CCN(c3cccc4ccncc34)CC2)c1.O=C(O)C(F)(F)F [NCGC00244146-01] | 79.4
Cc1cc(C)nc(NC(=S)N2CCN(c3ccc4nonc4c3)CC2)c1.O=C(O)C(F)(F)F [NCGC00244156-01] | 50.1
CN(C)CCc1c[nH]c2ccc(O)cc12 [NCGC00247724-01] | 112
CCOC(=O)c1nnc(NS(=O)(=O)c2ccc(NC(=O)Cc3ccc(Cl)c(Cl)c3)cc2)s1.O=C(O)C(F)(F)F [NCGC00248354-02] | 31.4
Cc1c2c(=O)n(-c3ccccc3)[nH]c2cc(=O)n1Cc1ccco1.O=C(O)C(F)(F)F [NCGC00248469-01] | 56.2

Same assay, conditions: qHTS primary screen of LOPAC/NPACT libraries; negative = inhibition

Compound | Efficacy (%)
Cl.O=c1cc(CN2CCOCC2)occ1OCCCCCSc1ccnc2cc(C(F)(F)F)ccc12 [NCGC00188866-05] | -26
COc1cc(N2CCC(N3CCN(C)CC3)CC2)ccc1Nc1ncc(Cl)c(Nc2ccccc2S(=O)(=O)C(C)C)n1 [NCGC00238453-07] | -24

Same assay, conditions: qHTS primary screen of LOPAC/NPACT libraries; negative sign = inhibitory curve

Compound | Curve Class
Cl.O=c1cc(CN2CCOCC2)occ1OCCCCCSc1ccnc2cc(C(F)(F)F)ccc12 [NCGC00188866-05] | -2.4
COc1cc(N2CCC(N3CCN(C)CC3)CC2)ccc1Nc1ncc(Cl)c(Nc2ccccc2S(=O)(=O)C(C)C)n1 [NCGC00238453-07] | -2.4

Same assay, conditions: qHTS primary screen of LOPAC/NPACT libraries; read-out: IC50

Compound | IC50 [µM]
Cl.O=c1cc(CN2CCOCC2)occ1OCCCCCSc1ccnc2cc(C(F)(F)F)ccc12 [NCGC00188866-05] | 39.8
COc1cc(N2CCC(N3CCN(C)CC3)CC2)ccc1Nc1ncc(Cl)c(Nc2ccccc2S(=O)(=O)C(C)C)n1 [NCGC00238453-07] | 56.2
